Assay results: patent US20250282798A1, “HETEROARYL-SUBSTITUTED BICYCLIC COMPOUND AND USE THEREOF” (Medshine Discovery Inc., priority 2022, published 2025)

How the values were obtained:
Assay type in all cases: in vitro ADME
MDR1-MDCK II cell line = test: Permeability evaluation in MDR1-MDCK II cells
Procedure: (§1) Cell line: The MDR1-MDCK II cell line authorized by Piet Borst's laboratory at the Netherlands Cancer Research Institute was used in this assay as an in vitro model for the permeability evaluation assay. The cells were inoculated in a Transwell-96 well cell plate at a density of 2.3×10^5 cells/cm^2, and cultured in a carbon dioxide incubator for 4-7 days before use in the transport assay.
(§2) The administration concentration of the test sample was 2.00 μM.
(§3) Test direction and number of parallel samples: bidirectional A-B and B-A, 2 parallels
(§4) Transport buffer (TB): HBSS solution containing 10 mM HEPES (pH 7.40±0.05)
(§5) Incubation conditions: 37±1° C., 5% CO2, incubated for 150 minutes
(§6) Control compounds: Nadolol and metoprolol were used as low-permeability and high-permeability control compounds. Digoxin was used as a substrate of P-glycoprotein. The administration concentration of nadolol and metoprolol was 2.00 μM, and the administration concentration of digoxin was 10.0 μM.
(§7) After the transport assay, the integrity of the MDR1-MDCK II cell layer was assayed by the Lucifer Yellow Rejection Assay. The remaining solution in the apical and basolateral wells was removed. 75 μL of TB containing 100 μM Lucifer Yellow was added to the apical well, and 250 μL of TB was added to the basolateral well. The cell plate was incubated in a cell culture incubator at 37±1° C., 5% CO2 and saturated humidity for 30 minutes. Then, 20 μL of sample was taken from the apical well and mixed with 60 μL of TB, and 80 μL of sample was taken from the basolateral well. The relative fluorescence unit (RFU) was measured at 425/528 nm (excitation/emission) using a microplate reader.
(§8) In this assay, the sample analysis of the test samples and control compounds of nadolol, metoprolol, and digoxin was performed by liquid chromatography-tandem mass spectrometry (LC-MS/MS). The retention time of the analytes and internal standards, chromatogram acquisition, and chromatogram integration were processed using the software Analyst (Sciex, Framingham, MA, USA). The sample analysis was semi-quantitatively determined using the peak area of analyte and the peak area of internal standard.
(§9) VR is the volume of the receiver end solution (0.075 mL for side A, and 0.25 mL for side B); Area is the relative surface area of the cell monolayer (0.0804 cm2); Time is the incubation time (9000 s); C0 is the peak area ratio of the compound at the administration end; VD is the volume of the administration end (0.075 mL for side A, and 0.25 mL for side B); CD and CR are the peak area ratios of the compound at the administration end and the receiver end, respectively.

[1] = Permeability evaluation in MDR1-MDCK II cells; conditions: dog
Procedure: as §1, §2, §3, §4, §5, §6, §7, §8, §9

MDR1 (P-glycoprotein) = test: Permeability evaluation in MDR1-MDCK II cells; conditions: dog, pH 7.4, 2.00 μM, 150 minutes
Procedure: as §1, §2, §3, §4, §5, §6, §7, §8, §9

**Q.** Which results are given for `Cn1ccc2c(-c3ncc(Nc4ccc5c(n4)OC[C@@H]4COCCN54)c4c3CNC4=O)ccnc21` [Compound 4]?
**A.** Efflux ratio (MDR1-MDCK II cell line; 2.00 μM, 150 minutes): 4.97; Permeability Papp A to B (MDR1-MDCK II cell line; 2.00 μM, 150 minutes): 5.20 10^−6 cm/s; Permeability Papp B to A (MDR1-MDCK II cell line; 2.00 μM, 150 minutes): 25.84 10^−6 cm/s; Conclusion of the permeability (MDR1-MDCK II cell line; class by Papp): Medium (Medium permeability 1.0 < Papp < 5.5 (×10^−6 cm/s))

**Q.** What does the source list for `O=C1NCc2c(-c3cnc4cc(F)ccn34)ccc(Nc3ccc4c(n3)OC[C@@H]3COCCN43)c21` [Compound 8]?
**A.** Papp A→B at 150 min, 2 μM ([1]; pH 7.4, 2.00 μM, 150 minutes): 1.97 ×10⁻⁶ cm/s; Papp B→A at 150 min, 2 μM ([1]; pH 7.4, 2.00 μM, 150 minutes): 14.2 ×10⁻⁶ cm/s; Papp at 150 min, 2 μM ([1]; pH 7.4, class by Papp, read-out: Conclusion of the permeability): 1 to 5.5 ×10⁻⁶ cm/s; efflux ratio at 150 min, 2 μM (MDR1 (P-glycoprotein)): 7.19
